Data: publication PMC8267177, “Cyclic Peptoid-Peptide Hybrids as Versatile Molecular Transporters” (Frontiers in Chemistry, 2021)
Entries after “also recorded” stand apart in the source; their conditions may differ. Non-standard residues stand in square brackets, D forms with d. Residues, ends and D or L forms follow the SMILES beside them. *: point of attachment. RhodamineB = CCN(CC)c1ccc2c(-c3ccccc3C(=O)*)c3ccc(=[N+](CC)CC)cc-3oc2c1; Nphe = O=C(O)CNCc1ccccc1; Nlys = NCCCCNCC(=O)O

Columns and labels:
cells = details: free dye, not efficiently entering the cells; ref many research groups (reference not given); cited from earlier work
Method: (§1) The cytotoxicity of the macrocyclic hybrids 15–24, as well as their conjugates 15-Rhod to 24-Rhod, was examined using a standard MTT assay in human epithelial cervix carcinoma (HeLa) cells. […] ([Mosmann, 1983]; [Tolosa et al., 2015]) After treatment of HeLa cells with different concentrations of the respective macrocycles 15–24 (0.50─50 µM) for 72 h, no significant cytotoxic effects were observed.

in vitro = assay type: cell-based; details: human
Method: as §1, with “observed. […] As shown by many research groups that Rhodamine B by itself is not efficiently entering the cells showing therefore an LD50 > 50 μM, we assume that this the toxicity of the Rhodamine moiety might be higher when increasingly localizing in the mitochondria to a higher amount.” for “observed.”
In a 96-well plate (Corning® Costar® 3596 96-Well Cell Culture Cluster), 1.0 × 10^4 HeLa-cells per well of a 96 well plate were cultivated for 16 h. Stock solutions of the single compounds in dimethylsulfoxide were diluted to 0.50 µm, 5.00 µm, and 50.0 µm with cell culture medium (DMEM + 10% FBS + 1% P/S) to ensure a final concentration of DMSO below 0.5%. 100 µL of the prepared DMEM diluted compounds were added to each well and the cells were incubated for 72 h. All experiments were performed in triplicates. Cells that were solely treated with the culture medium containing 0.5% of DMSO served as a negative control. After incubation, the positive control (cells in DMSO plus 0.5% DMSO) was treated with 1% Triton-X. To determine the viability of the cells 20 µL of a freshly prepared solution of 3-(4,5-dimethylthiazol-2-yl)-2,5-diphenyltetrazolium bromide (MTT, 2.73 mg/mL, Sigma-Aldrich®) in culture medium were added to each well and incubated at 37 °C for 4 h. The reaction was stopped using 100 µL of Solubilization Solution / Stop Mix (CellTiter 96® Non-Radioactive Cell Proliferation Assay, Promega). After 24 h, the absorption (A) of every well at 595 nm was monitored using a 96-well plate reader (Ultra Microplate Reader ELx808, Biotech Instruments Inc.).

HeLa cells [1] = test: Localization assay: cellular uptake and organellar localization by confocal microscopy; assay type: cell-based, human; details: 5 µM, 5 h, 37 °C
Method: As 15-Rhod to 24-Rhod were not toxic at 5 µM the following transport experiments were carried out using this concentration. To study their cellular uptake and organellar localization, HeLa cells were treated with 5 µM of the cyclic conjugates 15-Rhod to 24-Rhod for 5 h and eventually imaged using confocal microscopy (for experimental details, see supplemental Material).
FIGURE 4 Localization of the macrocyclic conjugates 15-Rhod to 24-Rhod in HeLa cells. After incubation with a 5.0 µM solution of the respective transporters for 5 h, the cellular uptake was monitored via fluorescent confocal microscopy (Rhodamine B labeled hybrids: λ Exc = 532 nm, λ Em = 570–620 nm; MitoTracker® Green: λ Exc = 488 nm, λ Em = 490–540 nm; Hoechst 33,342: λ Exc = 405 nm, λ Em = 430–490 nm). Counterstaining with MitoTracker® Green visualized mitochondria (green). Staining with 2 μg/ml Hoechst 33,342 indicated nuclei (blue). Scale bar: 10 µm.
In an 8-well chamber slide (µ-Slide 8-Well ibidiTreat, ibidi®), 1.0 × 10^4 HeLa cells per well were cultivated for 16 h. The cyclic hybrids were diluted with DMEM to yield a 5 µM concentration. The cells were treated with the hybrids for 5 h at 37 °C. To monitor the intracellular localization, the cells were counterstained with MitoTracker® (Invitrogen) and 2 µg/mL Hoechst 33342. After washing with DPBS (3 ×), the luminescence was monitored via life-cell imaging using a Leica TCS-SPE confocal microscope (DM2500 inverse microscope, 8 Bit resolution, 1024 × 1024 pixels), equipped with a 1 Airy pinhole aperture (111.5 µm), ACS APO 63.0x/1.30 OIL UV and 40x/1.14 OIL UV objectives and the images were processed by the Leica Application Suite (LAS-AF) Version 2.1.2 build 4530 software. Images were taken with a scanning frequency of 400 Hz. Background noise was averaged by an eight-fold repetition of the scan process. The cyclic hybrids were excited at 532 nm, MitoTracker® Green at 488 nm, and Hoechst 33342 at 405 nm. The exposure was set to minimize oversaturated pixels in the final images. Fluorescence emission was measured at 570–620 nm for the detection of rhodamine B labeled hybrids, at 490–540 nm for the detection of mitochondria, and 430–490 nm for the detection of nuclei.

HeLa cells [2] = test: Cellular uptake at 4 °C and 37 °C (CLSM, Figure S1); assay type: cell-based, human; details: 5 µM, 2 h incubation at 4 °C and 37 °C
Description: The molecular transporters 15-Rhod, 20-Rhod and 22-Rhod are characterized by low cytotoxicity, efficient cellular uptake, and high specificity. Thus, they represent the most promising cyclic hybrids capable of the transport of different cargos into mitochondria. […] The capability of hydrophobic structures to function as molecular transporters is also known for so-called hydrophobic CPPs. However, only a few members of this substance class have been discovered yet. ([Xie et al., 2020]; [Desale et al., 2021]) It is assumed, that hydrophobic CPPs may penetrate cellular membranes in a direct, energy-independent manner dispensing with endocytosis. ([Gao et al., 2002]; [Gao et al., 2011]; [Nakayama et al., 2011]; [Guidotti et al., 2017]; [Tian et al., 2017]) The latter leads to a major challenge as molecular transporters might not escape the endosomes and get degraded instead of reaching their designated targets. […] The efficient internalization at a low temperature led us to the assumption that 22-Rhod might directly penetrate the cell membrane. However, the uptake mechanism of macrocyclic hybrids will be further examined.
Figure S1: Confocal Laser Scanning Microscopy (CLSM) images of HeLa cells after 2 h incubation with 5 µM peptoid 22-Rhod at 4 °C (top line, A) and 37 °C (bottom line, B). […]

| IC50 at 72 h (in vitro) | Structure (SMILES) | LD50 of Rhodamine B by itself (cells) | Cellular uptake efficiency (HeLa cells [1]; confocal microscopy of Rhodamine B fluorescence (Exc 532 nm, Em 570–620 nm)) | Organellar localization (mitochondria) (HeLa cells [1]; counterstaining with MitoTracker Green, confocal microscopy) | Mitochondrial uptake at 37 °C and at 4 °C (HeLa cells [2]) |
| --- | --- | --- | --- | --- | --- |
|  | CCN(CC)c1ccc2c(-c3ccccc3C(=O)O)c3ccc(=[N+](CC)CC)cc-3oc2c1 [Rhodamine B] | > 50 µM |  |  |  |
| 44 µM | CCN(CC)c1ccc2c(-c3ccccc3C(=O)NCCCCN3CC(=O)N(Cc4ccccc4)CC(=O)N(Cc4ccccc4)CC(=O)N(Cc4ccccc4)CC(=O)N[C@@H](Cc4ccccc4)C(=O)N[C@@H](Cc4ccccc4)C3=O)c3ccc(=[N+](CC)CC)cc-3oc2c1 [22-Rhod, cyclo-(l-Phe-N1ph-N1ph-N1ph-N4am(Rhod)-l-Phe)] (cyclo(FF[Nlys](RhodamineB)[Nphe][Nphe][Nphe])) |  | efficiently taken up; also recorded: high cellular uptake efficiency | mitochondrial specificity | occurring at 37 °C as well as at 4 °C |
